The IC50 is the point on the concentration scale where inhibition reaches its midpoint. A low value points to inhibition by little substance. Broadly, the IC90 is the concentration needed for an effect of 90%. What is called inhibition is the change of the read-out against control, counted positive when it falls.

The subject of assay [1] is M. tuberculosis H37Rv growth inhibition, no glycerol. Briefly: H37Rv growth blockers, purified and synthesized samples, set 8, confirmation (AID 602437). The conditions noted are these: for IC50: measured here: IC50 replicates.
Experiment in assay [2]: as above
The following applies: M. tuberculosis H37Rv growth inhibition, no glycerol; at 100 µM (top of the series).

Each structure is given as a SMILES string. Values joined by “and” are separate entries in the source; they are usually repeats but may differ in a detail not shown here. Equal values may be shown once. Active and inactive are the calls of the source. The rule behind the calls is not given here.

Take `O=C(NCCc1ccc(Cl)cc1)c1ccc(CNc2c(N3CCOCC3)c(=O)c2=O)cc1`: the IC50 in assay [1] was 5.66 µM and 14.4 µM.

`O=C(c1ccc(CNc2c(N3CCCC3)c(=O)c2=O)cc1)N1CCN(c2ccccc2)CC1` came in with an IC50 in assay [1] of 70.2 µM.

Turning to `CC1CCCN(C(=O)C2CCC(CNc3c(N4CCCCC4)c(=O)c3=O)CC2)C1` (stereo not given), the IC50 in assay [1] amounted to 34.9 µM.

`CC1CC(C)CN(C(=O)C2CCC(CNc3c(N4CCCCC4)c(=O)c3=O)CC2)C1` (stereo not given): the IC50 in assay [1] is 7.79 µM and 24.7 µM.

In assay [1], `O=C(c1ccc(CNc2c(N3CCOCC3)c(=O)c2=O)cc1)N1CCN(c2ccccc2)CC1` came in with a half-maximal inhibitory concentration (IC50) of 3.8 µM.

As to `O=C(CSc1nc2ccccc2c(=O)[nH]1)NC1CCCCC1`, in assay [1], the 90% effect concentration (IC90) is less than 0.27 µM and the 50% inhibitory concentration (IC50) turned out to be 0.204 µM.

Regarding `O=C(c1ccc(CNc2c(N3CCCC3)c(=O)c2=O)cc1)N1CC=C(c2ccccc2)CC1`, in assay [1], the concentration for half-maximal inhibition (IC50) is 4.52 µM and 4.4 µM.

On to `COC(=O)C(Cc1ccccc1)NC(=O)CSc1nc2ccccc2c(=O)[nH]1` (stereo not given), for which the inhibition in assay [2] is 2.32% (inactive).

With `O=C(C1CCC(CNc2c(N3CCCCC3)c(=O)c2=O)CC1)N1CCCCC1` (stereo not given), the concentration for half-maximal inhibition (IC50) in assay [1] worked out at 27.5 µM.

On to `Cc1cccc(N2CCN(C(=O)c3ccc(CNc4c(N5CCC(C)CC5)c(=O)c4=O)cc3)CC2C)c1` (stereo not given), for which, in assay [1], the 90% effect concentration (IC90) was 46.3 µM and the half-inhibitory concentration (IC50) turned out to be 27.7 µM.

On to `O=C(CSc1nc2c(c(=O)[nH]1)CCCC2)NC1CCCCC1`, for which, in assay [1], the IC90 was 3.45 µM and the IC50 came out at 2.3 µM.

In the case of `O=C(CSc1nc2ccccc2c(=O)[nH]1)NC1CCOCC1`, in assay [1], the concentration for an effect of 90% (IC90) was 33.8 µM and the IC50 was found to be 20.5 µM.

Regarding `CC1CCCN(c2c(NCc3ccc(C(=O)N4CC=C(c5ccccc5)CC4)cc3)c(=O)c2=O)C1` (stereo not given), in assay [1], the IC90 is 9.7 µM and the IC50 stood at 7.72 µM.

`O=C(c1ccc(CNc2c(N3CCCC3)c(=O)c2=O)cc1)N1CCc2ccccc2C1` yielded an IC50 in assay [1] of 7.79 µM.

In assay [1], `CC1CCCN(C(=O)c2ccc(CNc3c(N4CCCCC4)c(=O)c3=O)cc2)C1` (stereo not given) displayed an IC50 of 5.73 µM.

`Cc1cccc(N2CCN(C(=O)c3ccc(CNc4c(N5CCC(C)CC5)c(=O)c4=O)cc3)CC2)c1C`: in assay [1], the concentration for an effect of 90% (IC90) was 56.9 µM and the IC50 worked out at 42.1 µM.

In the case of `CC1CC(C)CN(C(=O)c2ccc(CNc3c(N4CCCC4)c(=O)c3=O)cc2)C1` (stereo not given), the concentration for half-maximal inhibition (IC50) in assay [1] is 12.8 µM.

`O=C(CSc1nc2c(c(=O)[nH]1)CN(Cc1ccccc1)CC2)NC1CCCCC1`: in assay [2], the inhibition was -4.57% (inactive).

Take `CCOC(=O)CSc1ncnc2c1cnn2-c1ccccc1`: in assay [1], the concentration for an effect of 90% (IC90) is 9.98 µM and the concentration for half-maximal inhibition (IC50) stood at 4.02 µM.

For `COc1ccc(NC(=O)NCc2ccc(C(=O)N3CCC(c4ccccc4)CC3)cc2)cc1`, the inhibition in assay [2] was 14% (inactive).

In turn, `O=C(c1ccc(CNc2c(N3CCOCC3)c(=O)c2=O)cc1)N1CCC(c2ccccc2)CC1` returned an IC50 in assay [1] of 3.56 µM.

For the molecule `CC(C)CCNC(=O)CSc1nc2ccccc2c(=O)[nH]1`, in assay [1], the 90% effect concentration (IC90) was 1.01 µM and the IC50 amounted to 0.651 µM.

`O=C(NCCc1ccc(Cl)cc1)C1CCC(CNc2c(N3CCCCC3)c(=O)c2=O)CC1` (stereo not given): in assay [1], the 50% inhibitory concentration (IC50) came out at 17.6 µM.

With `CCOc1ccc(NC(=O)c2ccc(CNc3c(N4CCCC4)c(=O)c3=O)cc2)cc1`, in assay [2], the inhibition is -0.36% (inactive).

Take `O=C(CSc1nc2c(c(=O)[nH]1)CCC2)NC1CCCCC1`: in assay [1], the IC90 was 3.23 µM and the half-inhibitory concentration (IC50) is 2.24 µM.

Regarding `COc1ccc(N2CCN(C(=O)c3ccc(CNc4c(N5CCCC(C)C5)c(=O)c4=O)cc3)CC2)cc1` (stereo not given), in assay [1], the concentration for an effect of 90% (IC90) is 41.4 µM and the IC50 was 25.4 µM.

With `O=C(NCc1ccc(C(=O)N2CCC(c3ccccc3)CC2)cc1)Nc1ccc(Cl)cc1`, in assay [1], the IC90 was 92.5 µM and the IC50 is 72.2 µM.

Take `COCCNC(=O)CSc1nc2ccccc2c(=O)[nH]1`: in assay [2], the inhibition was -10.3% (inactive).

In assay [1], `CC1CCN(C(=O)c2ccc(CNc3c(N4CCCC4)c(=O)c3=O)cc2)CC1` gave a half-maximal inhibitory concentration (IC50) of 10.1 µM.

With `CCC(C)NC(=O)CSc1nc2ccccc2c(=O)[nH]1` (stereo not given), in assay [1], the concentration for an effect of 90% (IC90) was 7.63 µM and the IC50 was 4.95 µM.

Regarding `O=C(NCc1ccc(C(=O)N2CCC(c3ccccc3)CC2)cc1)NC1CCCCC1`, in assay [1], the IC90 was 86.4 µM and the half-maximal inhibitory concentration (IC50) stood at 67.7 µM.

With `CC(C)OC(=O)CSc1ncnc2c1cnn2-c1ccccc1`, the half-maximal inhibitory concentration (IC50) in assay [1] stood at 12 µM.

As to `COc1ccc(N2CCN(C(=O)c3ccc(CNC(=O)NCc4ccc(Cl)cc4)cc3)CC2)cc1`, the inhibition in assay [2] was 2.39% (inactive).

Consider `CCOC(=O)N1CCC(Nc2c(Nc3cccc(CC)c3)c(=O)c2=O)CC1`, for which the concentration for half-maximal inhibition (IC50) in assay [1] was found to be 36.5 µM.

For the molecule `CCOC(=O)CSc1ncnc2c1cnn2-c1ccc(C)cc1C`, in assay [1], the IC90 was 4.58 µM and the concentration for half-maximal inhibition (IC50) was found to be 2.64 µM.

`COC(=O)CSc1ncnc2c1cnn2-c1ccc(C)cc1C`: in assay [1], the IC90 is 3.71 µM and the IC50 was 2.78 µM.

`O=C(c1ccc(CNc2c(N3CCCC3)c(=O)c2=O)cc1)N1CCC(c2ccccc2)CC1` had an IC50 in assay [1] of 76.1 µM.

In the case of `CC(C)CCNC(=O)CSc1nc2c(c(=O)[nH]1)CCCC2`, in assay [1], the concentration for an effect of 90% (IC90) is 6.58 µM and the IC50 is 4.43 µM.

As to `O=C(NCc1ccc(C(=O)N2CCN(c3ccccc3)CC2)cc1)NC1CCCCC1`, the inhibition in assay [2] is 2.51% (inactive).

As for `CC(=O)c1ccc(NC(=O)c2ccc(CNc3c(N4CCOCC4)c(=O)c3=O)cc2)cc1`, in assay [1], the half-inhibitory concentration (IC50) was found to be 63.7 µM.

`CC(C)CCNC(=O)CSc1nc2c(c(=O)[nH]1)CCCCC2` had a concentration for half-maximal inhibition (IC50) in assay [1] of 99.2 µM.

For the molecule `COc1ccc(N2CCN(C(=O)c3ccc(CNc4c(N5CCOCC5)c(=O)c4=O)cc3)CC2)cc1`, the IC50 in assay [1] is 8.95 µM and 8.65 µM.

On to `O=C(c1ccc(CNc2c(N3CCOCC3)c(=O)c2=O)cc1)N1CC=C(c2ccccc2)CC1`, for which, in assay [1], the 90% effect concentration (IC90) is 8.36 µM and the IC50 came to 1.71 µM.

Values taken from PubChem BioAssay AID602437 (Southern Research Specialized Biocontainment Screening …, 2012).
